{"source": "patent US11479570B2", "about": "“Pentafluorophosphate derivative, its uses and an appropriate manufacturing method” (FREIE UNIVERSITÄT BERLIN, priority 2017, dated 2022)", "key": {"[1]": {"target": "T1, protein tyrosine phosphatase PTP1B (Homo sapiens, UniProt P18031)", "T1 sequence (P18031 1-435)": "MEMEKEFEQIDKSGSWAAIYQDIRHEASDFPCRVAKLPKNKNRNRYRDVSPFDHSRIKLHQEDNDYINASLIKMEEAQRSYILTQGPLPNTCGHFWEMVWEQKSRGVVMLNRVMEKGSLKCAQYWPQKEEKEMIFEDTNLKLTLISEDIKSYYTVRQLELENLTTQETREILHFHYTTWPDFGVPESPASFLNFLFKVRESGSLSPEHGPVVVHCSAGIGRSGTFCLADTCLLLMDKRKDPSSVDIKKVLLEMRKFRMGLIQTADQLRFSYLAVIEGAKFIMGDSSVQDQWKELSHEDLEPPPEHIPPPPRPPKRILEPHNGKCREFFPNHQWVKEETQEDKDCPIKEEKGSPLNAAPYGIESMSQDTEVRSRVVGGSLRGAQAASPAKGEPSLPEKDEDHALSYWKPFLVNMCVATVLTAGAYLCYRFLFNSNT", "conditions": "data published (literature), cited from earlier work"}, "[2]": {"test": "Solubility", "type": "physicochemical", "conditions": "tetramethylammonium salt", "source_text": "The obtained product 14-Na (cf. FIG. 5B) was stable and well soluble in the used biochemical buffer."}, "[3]": {"test": "Stability in aqueous solution by 19F-NMR spectroscopy", "type": "physicochemical", "conditions": "pH range from 2 to 12 in aqueous solution, D2O, after several hours", "source_text": "(§1) In order to enhance the solubility in aqueous systems and to exclude any interfering effects of the counter ion NMe4^+, compound 13 was transferred into its sodium salt 13-Na."}, "[4]": {"test": "Lipophilicity from elution properties on RP-HPLC", "type": "physicochemical", "conditions": "in accordance with elution properties on RP-HPLC", "description": "Formation of α,α-difluorobenzyl-penta-P-fluorophosphate 13 was confirmed by HPLC-MS analysis displaying very uncommon elution properties both on C8 and C18 reversed phase silica. While the phosphonic acid 12 eluted at 3.4 min on RP-18 material displaying a symmetric peak and a characteristic UV spectrum, compound 13 interacted strongly with the column material, resulting in elution after 9 min at the very end of the default gradient (5 to 95% ACN in water). Additionally, no absorbance of 13 at 210 nm, 254 nm and 290 nm could be observed. These properties hampered chromatographic purifications like reverse phase MPLC."}, "[5]": {"target": "T1, protein tyrosine phosphatase PTP1B", "test": "PTP1B enzyme assay (detection of chromogenic para-nitrophenolate)", "type": "biochemical", "conditions": "for Ki: detection of the chromogenic para-nitrophenolate at 405 nm, read-out: inhibition constant KI (inhibitory effect on PTP1B in an enzyme assay)", "source_text": "as §1\nDuring the measurements of the inhibitory effect of 13-Na, inhibitors with known inhibition constants were used in parallel as positive controls in order to verify the reliability of the assay."}}, "note": "Entries after “also recorded” stand apart in the source; their conditions may differ. Like-named read-outs stand apart in the source and are kept apart here.", "data": [{"compound": "O=P(O)(O)Cc1ccccc1", "note": "[Benzyl phosphonic acid]", "values": [{"measurement": "Inhibitory effect on PTP1B in an enzyme assay (in words)", "setting": "[1]; comparative example", "value": "No inhibition"}]}, {"compound": "C[N+](C)(C)C.FC(F)(c1ccccc1)[P-](F)(F)(F)(F)F", "note": "[compound 13, tetramethylammonium (difluoro-(phenyl)-methyl)-penta-P-fluorophosphate]", "values": [{"measurement": "solubility in acetonitrile versus water", "setting": "[2]", "value": "more soluble in acetonitrile than in water"}, {"measurement": "stability (degradation or hydrolysis)", "setting": "[3]", "value": "no degradation or hydrolysis could be observed"}, {"measurement": "lipophilicity compared to phosphonate 12", "setting": "[4]", "value": "significantly more lipophilic"}, {"measurement": "inhibitory potential towards PTP1B (in words)", "setting": "[5]", "value": "reversible inhibitor; also recorded: significant affinity"}, {"measurement": "Ki", "setting": "[5]", "value": 1800, "unit": "µM"}]}, {"compound": "C[N+](C)(C)C.FC(F)(c1ccc2ccccc2c1)[P-](F)(F)(F)(F)F", "note": "[compound 14, tetramethylammonium (difluoro-(naphtha-2-yl)-methyl)-penta-P-fluorophosphate]", "values": [{"measurement": "Ki", "setting": "[5]", "value": 26, "unit": "µM"}]}, {"compound": "Fluorobenzyl phosphonic acid", "values": [{"measurement": "Ki", "setting": "[1]; comparative examples, read-out: Inhibitory effect on PTP1B in an enzyme assay, KI", "value": "~5000", "unit": "µM"}]}]}
